Test results: publication PMC5585256 (Scientific Reports, 2017)
Marks after values point to notes of the source that are not given here.

How the values were obtained:
Assay type in all cases: biochemical
[1] = molecular target: T1, pBChEV5 (F227A/S287G/A328W/Y332G) (Homo sapiens, UniProt P06276, A356W/F255A/S315G/Y360G); test: Inhibition of BTC hydrolysis activity of pBChEV5; details: for Fold increase in sensitivity relative to WT pBChE: pBChEV5 vs WT pBChE
T1 construct: hexahistidine (C); barley alpha-amylase signal peptide (N); made in house; host or cells: Nicotiana benthamiana (transient, MagnICON/TMV vector)
T1 sequence (P06276 29-602 F255A/S315G/A356W/Y360G): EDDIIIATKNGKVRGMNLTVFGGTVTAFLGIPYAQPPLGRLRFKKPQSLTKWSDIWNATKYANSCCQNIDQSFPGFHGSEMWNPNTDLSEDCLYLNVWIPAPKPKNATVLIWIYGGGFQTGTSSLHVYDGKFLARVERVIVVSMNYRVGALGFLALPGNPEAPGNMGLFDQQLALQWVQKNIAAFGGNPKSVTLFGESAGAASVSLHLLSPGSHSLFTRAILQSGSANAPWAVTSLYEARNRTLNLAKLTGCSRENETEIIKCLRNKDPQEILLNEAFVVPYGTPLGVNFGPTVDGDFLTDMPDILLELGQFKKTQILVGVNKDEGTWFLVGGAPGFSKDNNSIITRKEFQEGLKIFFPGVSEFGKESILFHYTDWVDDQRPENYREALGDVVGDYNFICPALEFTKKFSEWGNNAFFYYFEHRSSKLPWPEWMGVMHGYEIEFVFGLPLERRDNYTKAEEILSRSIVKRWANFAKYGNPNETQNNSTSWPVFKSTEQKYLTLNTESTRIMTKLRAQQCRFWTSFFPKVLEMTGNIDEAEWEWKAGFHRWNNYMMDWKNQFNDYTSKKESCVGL
Protocol: (§1) To this end, BTC hydrolysis was analyzed following a 30-minute incubation with the inhibitors.
(§2) The four inhibitors were purchased from Sigma (St Louis, MO).
(§3) Preparations of BChE and variants thereof were incubated in 96-well plate format with indicated concentrations of the inhibitors for 30 min at room temperature followed by activity measurements based on modified Ellman assay using 1 mM BTC as the substrate. IC50 values were determined by non-linear regression (GraphPad Prism) fit according to Equation (4).

[2] = molecular target: T2, pBChEV3 (A199S/S287G/A328W/Y332G) (Homo sapiens, UniProt P06276, A227S/A356W/S315G/Y360G); test: Inhibition of BTC hydrolysis activity of pBChEV3; details: for Fold increase in sensitivity relative to WT pBChE: pBChEV3 vs WT pBChE
T2 construct: hexahistidine (C); barley alpha-amylase signal peptide (N); made in house; host or cells: Nicotiana benthamiana (transient, MagnICON/TMV vector)
T2 sequence (P06276 29-602 A227S/S315G/A356W/Y360G): as the sequence (P06276 29-602 F255A/S315G/A356W/Y360G) above, with A199S, A227F counted along it
Protocol: as §1, §2, §3

[3] = molecular target: T3, WT pBChE (plant-derived human butyrylcholinesterase) (Homo sapiens, UniProt P06276); test: Inhibition of BTC hydrolysis activity of WT pBChE; details: for Fold increase in sensitivity relative to WT pBChE: WT pBChE (reference)
T3 construct: barley alpha-amylase signal peptide (N); made in house; host or cells: Nicotiana benthamiana (transient, MagnICON/TMV vector, Agrobacterium infiltration)
Protocol: as §1, §2, §3

[4] = molecular target: T4, pBChEV4 (A199S/F227A/S287G/A328W/Y332G) (Homo sapiens, UniProt P06276, A227S/A356W/F255A/S315G/Y360G); test: Inhibition of BTC hydrolysis activity of pBChEV4; details: for Fold increase in sensitivity relative to WT pBChE: pBChEV4 vs WT pBChE
T4 construct: hexahistidine (C); barley alpha-amylase signal peptide (N); made in house; host or cells: Nicotiana benthamiana (transient, MagnICON/TMV vector)
T4 sequence (P06276 29-602 A227S/F255A/S315G/A356W/Y360G): as the sequence (P06276 29-602 F255A/S315G/A356W/Y360G) above, with A199S counted along it
Protocol: as §1, §2, §3

[5] = molecular target: T5, pBChEV2 (F227A/S287G/A328W/Y332A) (Homo sapiens, UniProt P06276, A356W/F255A/S315G/Y360A); test: Inhibition of BTC hydrolysis activity of pBChEV2; details: for Fold increase in sensitivity relative to WT pBChE: pBChEV2 vs WT pBChE
T5 construct: hexahistidine (C); barley alpha-amylase signal peptide (N); made in house; host or cells: Nicotiana benthamiana (transient, MagnICON/TMV vector)
T5 sequence (P06276 29-602 F255A/S315G/A356W/Y360A): as the sequence (P06276 29-602 F255A/S315G/A356W/Y360G) above, with G332A counted along it
Protocol: as §1, §2, §3

[6] = molecular target: T6, WT hBChE (human plasma-derived butyrylcholinesterase) (Homo sapiens, UniProt P06276); test: Inhibition of BTC hydrolysis activity of WT hBChE; details: for Fold increase in sensitivity relative to WT pBChE: WT hBChE vs WT pBChE
T6 construct: we first compared WT human plasma-derived (hBChE) to pBChE; from tissue; host or cells: human plasma
Protocol: as §1, §2, §3

WT pBChE = molecular target: T7, WT pBChE (Homo sapiens, UniProt P06276); test: Inhibition rate constant for paraoxon, WT pBChE; details: enzyme WT pBChE
T7 construct: barley alpha-amylase signal peptide (N); made in house; host or cells: Nicotiana benthamiana (transient, MagnICON/TMV vector, Agrobacterium infiltration)

pBChEV4 = molecular target: T8, pBChEV4 (Homo sapiens, UniProt P06276, A227S/A356W/F255A/S315G/Y360G); test: Inhibition rate constant for paraoxon, pBChEV4; details: enzyme pBChEV4
T8 construct: hexahistidine (C); barley alpha-amylase signal peptide (N); made in house; host or cells: Nicotiana benthamiana (transient, MagnICON/TMV vector)
T8 sequence (P06276 29-602 A227S/F255A/S315G/A356W/Y360G): as the sequence (P06276 29-602 F255A/S315G/A356W/Y360G) above, with A199S counted along it

[7] = Radiometric (−)-cocaine hydrolysis assay; details: substrate (−)-cocaine

## CN(C)C(=O)Oc1cccc([N+](C)(C)C)c1 [Neostigmine, [3-(dimethylcarbamoyloxy)phenyl]-trimethylazanium;bromide]
[1]
  IC50: 13.2 nM
  Fold increase in sensitivity relative to WT pBChE: (17)^**** fold
[1]; listed as neostigmine
  Fold increase in sensitivity relative to WT pBChE: 10–20 fold
[2]
  IC50: 204 nM
  Fold increase in sensitivity relative to WT pBChE: (1) fold
[2]; listed as neostigmine
  Fold increase in sensitivity relative to WT pBChE: near WT levels
[3]
  IC50: 229 nM
  Fold increase in sensitivity relative to WT pBChE: (1) fold
[4]
  IC50: 155 nM
  Fold increase in sensitivity relative to WT pBChE: (1)^**** fold
[4]; listed as neostigmine
  Fold increase in sensitivity relative to WT pBChE: near WT levels
[5]
  IC50: 17.8 nM
  Fold increase in sensitivity relative to WT pBChE: (13)^**** fold
[5]; listed as neostigmine
  Fold increase in sensitivity relative to WT pBChE: 10–20 fold
[6]
  IC50: 162 nM
  Fold increase in sensitivity relative to WT pBChE: (1)^**** fold

## CCOP(=O)(OCC)Oc1ccc([N+](=O)[O-])cc1 [Paraoxon, diethyl (4-nitrophenyl) phosphate]
[1]
  Fold increase in sensitivity relative to WT pBChE: (46)^**** fold
[1]; listed as paraoxon
  Fold increase in sensitivity relative to WT pBChE: 40–50 fold
[2]
  Fold increase in sensitivity relative to WT pBChE: (3)^**** fold
[2]; listed as paraoxon
  Fold increase in sensitivity relative to WT pBChE: 3–7 fold
[3]
  Fold increase in sensitivity relative to WT pBChE: (1) fold
WT pBChE
  inhibition rate constant (ki): 52300 M⁻¹ s⁻¹
[4]
  Fold increase in sensitivity relative to WT pBChE: (6)^**** fold
[4]; listed as paraoxon
  Fold increase in sensitivity relative to WT pBChE: 3–7 fold
[5]
  Fold increase in sensitivity relative to WT pBChE: (38)^**** fold
[5]; listed as paraoxon
  Fold increase in sensitivity relative to WT pBChE: 40–50 fold
pBChEV4
  inhibition rate constant (ki): 283000 M⁻¹ s⁻¹
[6]
  Fold increase in sensitivity relative to WT pBChE: (0.9) fold

B1: WT pBChE (protein, UniProt P06276 29-602, looked up)
Cholinesterase: EDDIIIATKNGKVRGMNLTVFGGTVTAFLGIPYAQPPLGRLRFKKPQSLTKWSDIWNATKYANSCCQNIDQSFPGFHGSEMWNPNTDLSEDCLYLNVWIPAPKPKNATVLIWIYGGGFQTGTSSLHVYDGKFLARVERVIVVSMNYRVGALGFLALPGNPEAPGNMGLFDQQLALQWVQKNIAAFGGNPKSVTLFGESAGAASVSLHLLSPGSHSLFTRAILQSGSFNAPWAVTSLYEARNRTLNLAKLTGCSRENETEIIKCLRNKDPQEILLNEAFVVPYGTPLSVNFGPTVDGDFLTDMPDILLELGQFKKTQILVGVNKDEGTAFLVYGAPGFSKDNNSIITRKEFQEGLKIFFPGVSEFGKESILFHYTDWVDDQRPENYREALGDVVGDYNFICPALEFTKKFSEWGNNAFFYYFEHRSSKLPWPEWMGVMHGYEIEFVFGLPLERRDNYTKAEEILSRSIVKRWANFAKYGNPNETQNNSTSWPVFKSTEQKYLTLNTESTRIMTKLRAQQCRFWTSFFPKVLEMTGNIDEAEWEWKAGFHRWNNYMMDWKNQFNDYTSKKESCVGL
modifications: plant-expressed
[7]
  k cat: 0.0433 s⁻¹
